From PubChem BioAssay (NCI)
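Tested at 5 concentrations; 48 h exposure; 96-well plates; endpoints linearly interpolated, else capped at highest concentration. Abbreviation: GI50, concentration required for 50% inhibition of growth. Definition used: TGI = concentration required for complete inhibition of growth.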

Key:
Experiment in all cases: NCI tumour cell line growth inhibition, 48 h
CAKI-1 renal = tested on: CAKI-1 renal
EKVX NSCLC = tested on: EKVX NSCLC
HOP-92 NSCLC = tested on: HOP-92 NSCLC
MDA-MB-435 = tested on: MDA-MB-435
NCI-H23 lung = tested on: NCI-H23 lung
NCI-H460 lung = tested on: NCI-H460 lung
NCI-H522 lung = tested on: NCI-H522 lung
SF-295 CNS = tested on: SF-295 CNS
SK-MEL-2 melanoma = tested on: SK-MEL-2 melanoma
SR leukemia = tested on: SR leukemia

Compound | GI50 (CAKI-1 renal) | TGI (CAKI-1 renal) | GI50 (EKVX NSCLC) | TGI (EKVX NSCLC) | GI50 (HOP-92 NSCLC) | TGI (HOP-92 NSCLC) | GI50 (MDA-MB-435) | TGI (MDA-MB-435) | GI50 (NCI-H23 lung) | TGI (NCI-H23 lung) | GI50 (NCI-H460 lung) | TGI (NCI-H460 lung) | GI50 (NCI-H522 lung) | TGI (NCI-H522 lung) | GI50 (SF-295 CNS) | TGI (SF-295 CNS) | GI50 (SK-MEL-2 melanoma) | TGI (SK-MEL-2 melanoma) | GI50 (SR leukemia) | TGI (SR leukemia)
COC(=O)c1[nH]nc(-c2ccccc2)c1N1CCCCC1 | 62.4 µM | 87.8 µM | 23.7 µM | 73.3 µM | 19 µM | 64 µM | 64.7 µM | > 100 µM | 26.3 µM | 85.6 µM | 38.1 µM | > 100 µM | 36.8 µM | > 100 µM | 45.7 µM | > 100 µM | > 100 µM | > 100 µM | 46500 nM | > 100 µM
Cc1cc(C)cc(Nc2nccc(-c3c(-c4ccc(F)cc4)ncn3C3CCNCC3)n2)c1 | 1.24 µM | 2.72 µM | 1.4 µM | 3.19 µM | 1.34 µM | 3.53 µM | 0.767 µM | 2.09 µM | 1.88 µM | 4.21 µM | 1.27 µM | 2.77 µM | 1.5 µM | 3.45 µM | 1.85 µM | 3.58 µM | 2.04 µM | 4.09 µM | 1010 nM | 3.61 µM
c1ccc(Cn2cc3c(c2)-c2oncc2CC3)cc1 | 1.97 µM | > 76.3 µM | 2.74 µM | > 100 µM | 7.64 µM | > 91.4 µM | 0.311 µM | > 100 µM | 1.77 µM | > 100 µM | 0.402 µM | 7.5 µM | 1.89 µM | 8.13 µM | 0.818 µM | > 20.6 µM | 5.29 µM | 87.5 µM | 310 nM | 4.34 µM
O=C(Cc1ccccc1)Nc1nnc(CCSCCc2nnc(NC(=O)Cc3ccccc3)s2)s1 | 11.7 µM | 66 µM | > 100 µM | > 100 µM | 4.5 µM | 25.8 µM | 58.2 µM | > 100 µM | 28.8 µM | > 100 µM | 14.5 µM | > 100 µM | 8.41 µM | > 100 µM | 4.38 µM | 36.6 µM | 16.5 µM | > 100 µM | 13900 nM | 32.6 µM
N#Cc1cc2cc3c4c(c2oc1=O)CCCN4CCC3 |  | > 100 µM |  | > 100 µM |  | > 100 µM |  | > 100 µM |  | > 100 µM |  | > 100 µM |  | > 100 µM |  | > 100 µM |  | > 100 µM |  | > 100 µM
COc1ccc(N2CCN(CC(=O)N3CCN(c4nnc(-c5ccccc5)c(-c5ccccc5)n4)CC3)CC2)cc1 | 11.6 µM | > 100 µM | 4.47 µM | > 100 µM | 7.13 µM | > 94.4 µM | 5.48 µM | > 100 µM | 6.06 µM | > 100 µM | 5.96 µM | > 100 µM | 19.1 µM | > 73.2 µM | 4.15 µM | > 100 µM | 51.3 µM | > 100 µM | 2410 nM | 6.97 µM
CC(C)(C)c1ccc(C(=O)N/N=C/c2ccc(O)cc2O)cc1 | 0.342 µM | 1.99 µM | 0.356 µM | 11.8 µM | 1.65 µM | 13.7 µM | 0.806 µM | 21.6 µM | 0.839 µM | 13.3 µM | 0.32 µM | 1.88 µM | 1.2 µM | 14 µM | 0.327 µM | 3.22 µM | 1.89 µM | 16 µM | 317 nM | > 100 µM
Clc1ccccc1-c1nc2ccccc2[nH]1 | > 100 µM | > 100 µM | > 100 µM | > 100 µM | 42.1 µM | > 100 µM | > 100 µM | > 100 µM | > 100 µM | > 100 µM | > 100 µM | > 100 µM | > 100 µM | > 100 µM | 43.3 µM | > 100 µM | > 100 µM | > 100 µM | > 100000 nM | > 100 µM
COC(=O)[C@]12CC[C@@H](C)[C@H](C)[C@@H]1C1=CC[C@@H]3[C@@]4(C)C(c5ncon5)=C[C@@](C)(CO)C4=CC[C@@]3(C)[C@]1(C)CC2 | 4.06 µM | 26 µM | 2.02 µM | 4.37 µM | 1.98 µM | 4.04 µM | 1.72 µM | 3.36 µM | 2.01 µM | 4.52 µM | 1.97 µM | 3.95 µM | 1.71 µM | 3.57 µM | 2.11 µM | 5.03 µM | 2.05 µM | 4.22 µM | 1550 nM | 4.21 µM
Cn1c2ccccc2c2cc(-c3ccccc3)c3c(c21)C(=O)C=CC3=O |  | 39.3 µM |  | > 100 µM |  | 29.9 µM |  | 51.7 µM |  | 42.6 µM |  | 45.5 µM |  | 34.5 µM |  | 62.4 µM |  | 49.9 µM |  | 17.5 µM
COc1cc(/C=C/C(=O)c2c(C)n([O-])c3cc(C)c(C)cc3[n+]2=O)cc(OC)c1OC | 10.8 µM | 29.6 µM | 18 µM | 42.1 µM | 18.2 µM | 42.5 µM | 20.4 µM | > 100 µM | 16.2 µM | 41.9 µM | 10.9 µM | 26.3 µM | 10.9 µM | 28.9 µM | 13.2 µM | 34.8 µM | 16.4 µM | 32.9 µM | 13400 nM | > 100 µM
